{
  "source": "patent US8207185B2",
  "about": "“CaMKKβ as a target for treating obesity” (Duke University, priority 2006, dated 2012)",
  "key": {"NPY and AgRP mRNA": {"test_system": "NPY and AgRP mRNA", "experiment": "Third-ventricle infusion of STO-609 in living mice: hypothalamic NPY and AgRP mRNA quantified by RT-PCR", "assay_type": "in vivo", "conditions": "20 uM STO-609 by osmotic mini-pump, 0.5 ul/hr for 7 days, into third ventricle; versus NaOH vehicle; FIG. 1", "procedure": "(§1) To test the effect of STO-609 on feeding behavior, we stereotaxically implanted cannula into the third ventricle of living mice and attached the cannula to osmotic min-pumps that distribute fluids at a rate of 0.5 ul/hr for 7 days. Half of the pumps contained 20 uM STO-609 whereas the other half contained the NaOH vehicle. We monitored body weight together with food and water intake daily for 7 days. Then the mice were sacrificed, hypothalami were removed, RNA extracted and the mRNAs encoding NPY and AgRP were quantified by RT-PCR. […] In addition, STO-609 decreased the total amount of food consumed over the 7 day period by 60% (FIG. 2, left panel) but had no effect on water consumption. In addition, whereas the WT mice gained body weight during the 7 day period (about 4% relative to the starting weight) the STO-609 treated mice lost weight (about 7% relative to the starting weight) (FIG. 2, right panel)."}, "[1]": {"test_system": "feeding behavior of living mice", "experiment": "Third-ventricle infusion of STO-609 in living mice: food intake, water intake and body weight over 7 days", "assay_type": "in vivo", "conditions": "20 uM STO-609, 0.5 ul/hr for 7 days", "procedure": "as §1"}},
  "data": [
    {"smiles": "O=C(O)c1ccc2c3c1cccc3c(=O)n1c3ccccc3nc21", "note": "[STO-609]", "values": [
      {"measurement": "AgRP mRNA in hypothalamic RNA", "setting": "NPY and AgRP mRNA", "result": "highly statistically significant decreases"},
      {"measurement": "NPY mRNA in hypothalamic RNA", "setting": "NPY and AgRP mRNA", "result": "highly statistically significant decreases"},
      {"measurement": "effect on water consumption", "setting": "[1]", "result": "no effect"},
      {"measurement": "body weight lost relative to the starting weight", "setting": "[1]; 7 day period, FIG. 2, right panel", "result": "about 7%"},
      {"measurement": "decrease of total amount of food consumed over the 7 day period", "setting": "[1]; FIG. 2, left panel", "result": 60, "unit": "%"}
    ]}
  ]
}
